SMILES strings stand for the structures. The source made the active and inactive calls. No cut-off for these calls is given here.

The target of the assay is Glutamate NMDA receptor (Rattus norvegicus) (UniProt P35439+Q00959+Q00960+Q00961+Q62645+Q8VHN2+Q9R1M7). The assay is described as follows: Antagonist activity at glycine site of NMDA receptor in rat brain cortex membrane assessed as inhibition of [3H]Mk-801 binding by liquid scintillation counting in presence of antagonist 5,7-dichlorokynurenic acid.

Take `C[C@@H]1CN(O)C(=O)[C@@H]1N` (relative stereo): the outcome was Active.

Source of the values: ChEMBL document CHEMBL1152981 (J Med Chem, 2009).
